According to patent US12275731B2, “Azaindole inhibitors of wild-type and mutant forms of LRRK2” (DANA-FARBER CANCER INSTITUTE, INC., priority 2018, dated 2025):

Tests used:
Experiment in all cases: KinomeScan profiling
Type in all cases: binding
FGFR2 = FGFR2 (Homo sapiens, UniProt P21802); settings: FGFR2, 1 μM; read-out: % control
In short: (§1)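 First, compounds in DMSO are added at 1 μM to each of 468 kinase assays. Next, RLU signals are normalised between positive control (0%) and DMSO (100%). Finally, kinases under 35% are flagged active.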

EPHB6 = target: T1, EPHB6 (Homo sapiens, UniProt O15197); settings: EPHB6, 1 μM; read-out: % control
T1 sequence (O15197 32-1021): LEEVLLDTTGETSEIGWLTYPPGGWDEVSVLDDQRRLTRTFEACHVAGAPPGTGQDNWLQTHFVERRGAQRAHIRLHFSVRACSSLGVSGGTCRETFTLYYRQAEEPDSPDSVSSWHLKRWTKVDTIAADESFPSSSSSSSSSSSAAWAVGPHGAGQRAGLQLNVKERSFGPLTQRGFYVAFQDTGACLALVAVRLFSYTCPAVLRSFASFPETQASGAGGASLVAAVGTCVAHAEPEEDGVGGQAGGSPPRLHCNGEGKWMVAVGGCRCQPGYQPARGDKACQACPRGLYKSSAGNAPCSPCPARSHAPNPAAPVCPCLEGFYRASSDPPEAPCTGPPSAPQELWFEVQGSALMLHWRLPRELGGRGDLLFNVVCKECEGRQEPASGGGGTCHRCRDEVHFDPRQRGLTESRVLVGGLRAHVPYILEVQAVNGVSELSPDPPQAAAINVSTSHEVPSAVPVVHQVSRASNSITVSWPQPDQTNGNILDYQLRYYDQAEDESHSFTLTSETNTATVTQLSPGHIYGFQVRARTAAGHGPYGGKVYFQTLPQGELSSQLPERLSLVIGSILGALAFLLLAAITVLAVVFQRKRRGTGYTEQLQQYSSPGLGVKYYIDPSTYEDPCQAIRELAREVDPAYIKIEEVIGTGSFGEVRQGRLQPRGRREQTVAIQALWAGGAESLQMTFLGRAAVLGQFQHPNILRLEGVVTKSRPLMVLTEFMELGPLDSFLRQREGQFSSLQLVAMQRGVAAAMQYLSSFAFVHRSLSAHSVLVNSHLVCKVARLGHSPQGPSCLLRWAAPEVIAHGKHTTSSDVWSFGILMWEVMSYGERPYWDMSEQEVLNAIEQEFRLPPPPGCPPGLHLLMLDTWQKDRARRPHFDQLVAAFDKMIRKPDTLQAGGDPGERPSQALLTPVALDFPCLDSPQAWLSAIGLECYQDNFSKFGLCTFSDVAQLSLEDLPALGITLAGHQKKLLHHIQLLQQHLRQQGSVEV
In short: as §1

[1] = target: T2, ABL1(H396P)-nonphosphorylated (Homo sapiens, UniProt P00519, H396P); settings: read-out: % control
T2 construct: purchased KinomeScan®
In short: as §1

CSNK1G1 = CSNK1G1 (Homo sapiens, UniProt Q9HCP0); settings: CSNK1G1, 1 μM; read-out: % control
Chain of CSNK1G1 (Q9HCP0 whole entry): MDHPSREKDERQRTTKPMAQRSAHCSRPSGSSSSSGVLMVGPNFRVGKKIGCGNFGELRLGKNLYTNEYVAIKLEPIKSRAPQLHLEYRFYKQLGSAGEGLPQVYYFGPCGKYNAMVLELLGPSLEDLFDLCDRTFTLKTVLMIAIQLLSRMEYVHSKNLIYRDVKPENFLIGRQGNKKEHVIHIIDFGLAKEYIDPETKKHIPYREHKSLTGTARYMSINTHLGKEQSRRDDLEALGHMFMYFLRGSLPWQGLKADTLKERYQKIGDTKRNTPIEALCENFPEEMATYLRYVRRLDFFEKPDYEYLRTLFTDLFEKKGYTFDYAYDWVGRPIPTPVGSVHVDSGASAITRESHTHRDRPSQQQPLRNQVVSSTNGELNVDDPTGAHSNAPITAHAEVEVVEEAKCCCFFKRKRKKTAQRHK
In short: as §1

DYRK1A = DYRK1A (Homo sapiens, UniProt Q13627); settings: read-out: % control
In short: as §1

CSNK2A2 = CSNK2A2 (Homo sapiens, UniProt P19784); settings: CSNK2A2, 1 μM; read-out: % control
Chain of CSNK2A2 (P19784 whole entry): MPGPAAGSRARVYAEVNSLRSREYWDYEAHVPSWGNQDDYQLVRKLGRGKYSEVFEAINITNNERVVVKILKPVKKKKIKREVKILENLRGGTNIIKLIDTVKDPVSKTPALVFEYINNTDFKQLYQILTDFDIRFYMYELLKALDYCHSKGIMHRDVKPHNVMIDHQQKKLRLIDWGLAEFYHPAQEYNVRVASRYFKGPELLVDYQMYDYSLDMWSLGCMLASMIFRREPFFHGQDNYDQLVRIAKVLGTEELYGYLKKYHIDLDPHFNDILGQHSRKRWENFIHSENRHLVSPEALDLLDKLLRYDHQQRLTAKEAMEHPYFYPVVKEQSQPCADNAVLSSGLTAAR
In short: as §1

[2] = target: T3, TYK2(JH2domain-pseudokinase) (Homo sapiens, UniProt P29597); settings: read-out: % control
T3 construct: TYK2(JH2domain-pseudokinase)
T3 sequence (P29597 589-875 limits assumed): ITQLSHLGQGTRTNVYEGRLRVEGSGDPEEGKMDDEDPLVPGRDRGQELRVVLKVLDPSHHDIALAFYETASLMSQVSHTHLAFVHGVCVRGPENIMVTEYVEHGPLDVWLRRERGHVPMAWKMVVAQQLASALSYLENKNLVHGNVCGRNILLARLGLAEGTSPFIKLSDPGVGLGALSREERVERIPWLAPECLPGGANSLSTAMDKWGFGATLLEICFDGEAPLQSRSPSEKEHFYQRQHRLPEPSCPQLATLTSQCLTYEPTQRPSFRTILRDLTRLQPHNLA
In short: as §1

DMPK = target: T4, DMPK (Homo sapiens, UniProt Q09013); settings: read-out: % control
T4 sequence (Q09013 1-629): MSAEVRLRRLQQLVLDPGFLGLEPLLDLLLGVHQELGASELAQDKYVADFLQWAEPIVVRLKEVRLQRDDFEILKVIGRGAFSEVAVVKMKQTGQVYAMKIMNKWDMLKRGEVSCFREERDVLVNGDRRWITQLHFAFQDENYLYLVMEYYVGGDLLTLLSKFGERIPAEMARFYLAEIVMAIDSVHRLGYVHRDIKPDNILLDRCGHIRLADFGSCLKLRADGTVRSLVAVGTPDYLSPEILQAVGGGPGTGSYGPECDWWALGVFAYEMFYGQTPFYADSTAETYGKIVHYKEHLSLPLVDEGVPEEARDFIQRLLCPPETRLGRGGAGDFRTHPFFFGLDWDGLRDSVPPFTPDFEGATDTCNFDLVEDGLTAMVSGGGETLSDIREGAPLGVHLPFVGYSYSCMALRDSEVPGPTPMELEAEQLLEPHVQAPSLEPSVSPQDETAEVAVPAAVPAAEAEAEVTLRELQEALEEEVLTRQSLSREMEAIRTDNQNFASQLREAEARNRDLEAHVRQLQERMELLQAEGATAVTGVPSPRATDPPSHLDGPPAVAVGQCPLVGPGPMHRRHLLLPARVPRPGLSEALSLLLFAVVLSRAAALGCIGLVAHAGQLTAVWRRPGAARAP
In short: as §1

Chain of FGFR2 (P21802 22-821): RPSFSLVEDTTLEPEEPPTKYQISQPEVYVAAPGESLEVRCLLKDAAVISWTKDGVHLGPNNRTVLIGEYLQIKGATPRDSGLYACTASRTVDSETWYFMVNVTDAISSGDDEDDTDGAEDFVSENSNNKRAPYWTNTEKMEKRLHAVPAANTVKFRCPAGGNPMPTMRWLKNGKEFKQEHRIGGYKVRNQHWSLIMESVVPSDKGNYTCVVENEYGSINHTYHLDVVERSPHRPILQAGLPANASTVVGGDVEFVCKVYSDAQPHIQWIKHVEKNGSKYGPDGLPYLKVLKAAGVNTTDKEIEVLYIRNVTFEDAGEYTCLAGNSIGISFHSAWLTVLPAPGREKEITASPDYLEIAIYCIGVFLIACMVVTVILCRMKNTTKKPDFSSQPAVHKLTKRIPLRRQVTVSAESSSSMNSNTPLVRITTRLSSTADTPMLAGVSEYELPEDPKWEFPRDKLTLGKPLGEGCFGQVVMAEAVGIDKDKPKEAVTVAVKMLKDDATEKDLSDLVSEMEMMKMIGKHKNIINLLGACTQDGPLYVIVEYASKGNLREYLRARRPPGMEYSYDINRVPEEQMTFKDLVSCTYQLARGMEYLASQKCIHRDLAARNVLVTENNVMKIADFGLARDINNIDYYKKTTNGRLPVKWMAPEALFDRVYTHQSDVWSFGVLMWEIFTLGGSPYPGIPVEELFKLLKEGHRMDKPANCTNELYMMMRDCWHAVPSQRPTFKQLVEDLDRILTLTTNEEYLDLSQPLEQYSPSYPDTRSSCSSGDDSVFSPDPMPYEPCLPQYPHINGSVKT

Which remaining binding at 1 µM (FGFR2) does the source give for `CNc1c(-c2cnn([C@H]3CCN(C(C)=O)C[C@@H]3F)c2)cnc2[nH]cc(Cl)c12` [Compound 77, 1-((3S,4S)-4-(4-(3-chloro-4-(methylamino)-1H-pyrrolo[2,3-b]pyridin-5-yl)-1H-pyrazol-1-yl)-3-fluoropiperidin-1-yl)ethan-1-one] here?
The remaining binding at 1 µM was 72%.

And the remaining binding at 1 µM (EPHB6)?
Its remaining binding at 1 µM is 55%.

What about the remaining binding at 1 µM [1] of the same compound?
Its remaining binding at 1 µM is 36%.

What about the remaining binding at 1 µM (CSNK1G1) of the same compound?
Its remaining binding at 1 µM is 81%.

What about the remaining binding at 1 µM (DYRK1A) of the same compound?
Its remaining binding at 1 µM is 58%.

What about the remaining binding at 1 µM (CSNK2A2) of the same compound?
Its remaining binding at 1 µM is 90%.

And the remaining binding at 1 µM [2]?
The remaining binding at 1 µM was 84%.

What about the remaining binding at 1 µM (DMPK) of the same compound?
Its remaining binding at 1 µM is 36%.

`O=C(c1ccc(-c2cnc3[nH]cc(Cl)c3c2NC2CCCC2)cc1)N1CCC(N2CCOCC2)CC1` [Compound 101, (4-(3-chloro-4-(cyclopentylamino)-1H-pyrrolo[2,3-b]pyridin-5-yl)phenyl)(4-morpholinopiperidin-1-yl)methanone] was tested. Which remaining binding at 1 µM (FGFR2) did it give?
The remaining binding at 1 µM was 54%.

And the remaining binding at 1 µM (EPHB6)?
Its remaining binding at 1 µM is 100%.

What about the remaining binding at 1 µM [1] of the same compound?
The remaining binding at 1 µM was 100%.

And the remaining binding at 1 µM (CSNK1G1)?
The remaining binding at 1 µM was 92%.

And the remaining binding at 1 µM (DYRK1A)?
The remaining binding at 1 µM was 4%.

What about the remaining binding at 1 µM (CSNK2A2) of the same compound?
Its remaining binding at 1 µM is 100%.

What about the remaining binding at 1 µM [2] of the same compound?
Its remaining binding at 1 µM is 100%.

And the remaining binding at 1 µM (DMPK)?
The remaining binding at 1 µM was 52%.

Which remaining binding at 1 µM (FGFR2) does the source give for `CNc1c(-c2ccc(C(=O)N3CCC(N4CCOCC4)CC3)cc2)cnc2[nH]cc(Cl)c12` [Compound 96, (4-(3-chloro-4-(methylamino)-1H-pyrrolo[2,3-b]pyridin-5-yl)phenyl)(4-morpholinopiperidin-1-yl)methanone] here?
Its remaining binding at 1 µM is 94%.

What about the remaining binding at 1 µM (EPHB6) of the same compound?
The remaining binding at 1 µM was 99%.

And the remaining binding at 1 µM [1]?
The remaining binding at 1 µM was 76%.

And the remaining binding at 1 µM (CSNK1G1)?
Its remaining binding at 1 µM is 19%.

And the remaining binding at 1 µM (DYRK1A)?
The remaining binding at 1 µM was 69%.

What about the remaining binding at 1 µM (CSNK2A2) of the same compound?
Its remaining binding at 1 µM is 92%.

What about the remaining binding at 1 µM [2] of the same compound?
The remaining binding at 1 µM was 89%.

And the remaining binding at 1 µM (DMPK)?
The remaining binding at 1 µM was 36%.
